Test results: article PMC10541198, “Specific quinone reductase 2 inhibitors reduce metabolic burden and reverse Alzheimer’s disease phenotype in mice” (The Journal of Clinical Investigation, 2023)

How the values were obtained:
QR2 = target: T1, QR2 (Homo sapiens, UniProt P16083); experiment: QR2 activity assay, BNAH fluorescence (standard/primary); assay type: biochemical; details: for IC50: Figure 2D, readout not stated
T1 construct: purchased Sigma-Aldrich
T1 sequence (P16083 1-231): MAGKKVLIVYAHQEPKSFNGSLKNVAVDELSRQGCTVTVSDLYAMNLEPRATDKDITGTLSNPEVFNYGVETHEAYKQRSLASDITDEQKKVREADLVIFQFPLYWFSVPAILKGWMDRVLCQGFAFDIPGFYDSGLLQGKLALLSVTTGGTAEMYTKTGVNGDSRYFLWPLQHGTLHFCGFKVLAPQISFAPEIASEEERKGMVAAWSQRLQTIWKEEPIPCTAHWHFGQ
Excerpt: (§1) A drug discovery campaign strategy was initiated to screen compounds for QR2-specific, cell-free inhibition and in vitro activity, followed by SAR optimization (Figure 2A) to achieve highly specific and potent QR2 inhibitor synthesis. In order to establish a varied and chemically amenable starting point, we developed a high-throughput QR2 assay (Supplemental Methods) that we screened against a library with approximately 200,000 compounds. […] Compounds that replicated the initial hit result were then assayed similarly against QR1 to evaluate compound specificity (Figure 2B). From the HTS, a chemically tractable and attractive series of compounds containing a sulfone flanked by an amine and a heterocycle were identified and selected for SAR development (Figure 2C, Supplemental Methods, Supplemental Table 1, and Supplemental Table 2). […]
High Throughput Screen (H TS)
The enzymatic activity of QR 2 (10 nM) was measur ed using menadione (both Sigm a -Aldrich) as subst r at e and dihydro- benzylnicotinamide (BNAH; Tocris) as co-substrate(62). The reaction was performed in 50 mM Tri s HCl, 150 mM NaCl 0.01%Tween- 20 pH=8.5 (Sigma-Aldrich) at r oom tem per atur e. Briefl y, 3 µL of menadione alone (200 µM) or a mixture of menadione and QR2 (200 µM of […]
(§2) menadione and 10 nM of QR2) were dispensed in 1536-well black Nunc plates (Thermo-Fisher) using aMultidrop™ Combi Reagent Dispenser (Thermo-Fisher) and pre-incubated with compounds for 10min. BNAH (200µM) was t hen added (3 µL) to the reaction using a BioNex Solutions BNX1536plate washer and the plates were incubated for another 10 min. Fluorescence intensity was followed in a PHERAstar FS multi-mode plate reader (BMG Labtech) us i ng an optic module with excitation at 360 nm and emission at 470 nm. The initial HTS includedapproximately 200,000 compounds at a single concentrationof 5 µM. The chemical libraries used were Selleck Chemicals Bioactives, the Drug-like set from Enamine, HitFinder collection from Maybridge, Spectrum Collection from Microsource, Lopa c from Sigma -Aldrich and the diversity set s from Chem Div and Che m Br idge .
Initial ‘‘hit’’ compounds were defined as causing >30% reduction of enzyme activity. Compounds suspected to be fluorescent were re -assayed in an absorbance assay at 350 nm using the same reaction but in a higher volume (100 µL), in a transparent plate (Greiner Bio- One). ‘‘Hit’’ compounds resulting from both the fluorescence and absorbance assay wer e t ested in a concentration- response, and IC50 values were de t er mi ne d. In parallel, the same concentration response methodologywas appliedin a selectivity assay where QR2 enzymewas replaced byQR1 […]
Chromatography System, with UV/Vis detector 2489, using XBridge® Prep C18 10 μm 10x250 mm […]
was monitored by Wat er s UPLC-MS system: Acquity UPLC® H class with PDA detector, and using […]

QR1 = target: T2, QR1 (Homo sapiens, UniProt P15559); experiment: QR1 selectivity assay, fluorescence; assay type: biochemical; details: Figure 2D; readout not stated
T2 construct: purchased Sigma-Aldrich
Excerpt: as §1, §2
Initial ‘‘hit’’ compounds were defined as causing >30% reduction of enzyme activity. Compounds suspected to be fluorescent were re -assayed in an absorbance assay at 350 nm using the same reaction but in a higher volume (100 µL), in a transparent plate (Greiner Bio- One). ‘‘Hit’’ compounds resulting from both the fluorescence and absorbance assay wer e t ested in a concentration- response, and IC50 values were de t er mi ne d. In parallel, the same

T2 sequence (P15559 whole entry): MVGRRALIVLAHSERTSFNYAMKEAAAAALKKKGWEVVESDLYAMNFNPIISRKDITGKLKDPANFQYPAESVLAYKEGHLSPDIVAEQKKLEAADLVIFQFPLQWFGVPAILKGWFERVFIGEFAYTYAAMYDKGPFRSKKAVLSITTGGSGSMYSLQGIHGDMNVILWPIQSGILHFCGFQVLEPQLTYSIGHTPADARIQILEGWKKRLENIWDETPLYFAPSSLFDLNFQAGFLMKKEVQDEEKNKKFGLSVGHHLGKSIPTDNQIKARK

SMILES	binding affinity to QR2 than to QR1 (QR2)	specificity to QR2 compared with QR1 (QR2)	IC50 (QR2) [nM]	IC50 (QR1) [nM]
Cc1ccc(-c2cn3cccc(C)c3n2)cc1S(=O)(=O)N1CCNCC1 [YB-537]	more than 6,000 fold	more than 6,000 times	3	> 9990
Cc1ccc(-c2cn3cccc(C)c3n2)cc1S(=O)(=O)N1CCC(C)CC1 [YB-800]			30	> 9990
Cc1ccc(-c2cn3cccc(C)c3n2)cc1S(=O)(=O)N1CCCC1 [YB-808]			10	
